For data set [1], the target named is human μ-opioid receptor (OPRM1) (Homo sapiens, UniProt P35372). Put plainly: cell-based. As to conditions: for Emax: OPRM1, read-out: MOR Agonist %Emax ± SEM.
The nature of data set [2]: Multi-point microsome stability assay, human. The format is in vitro ADME. As to conditions: both, human microsomal fractions, pH 7.4.
Data set [3] addresses T1, human κ-opioid receptor (OPRK1) (Homo sapiens, UniProt P41145). Put plainly: Forskolin-induced cAMP accumulation assay, KOR agonist mode. The following applies: for Emax: read-out: KOR Agonist %Emax ± SEM.
Data set [4] in a line: Multi-point cytosol stability assay, human. As to conditions: human cytosol fractions, pH 7.4. The class given is in vitro ADME.
A short description of data set [5]: Multi-point cytosol stability assay, mouse. The class given is in vitro ADME. As to conditions: mouse cytosol fractions, pH 7.4.
The target of data set [6] is T2, human δ-opioid receptor (OPRD1) (Homo sapiens, UniProt P41143). Put plainly: Forskolin-induced cAMP accumulation assay, DOR agonist mode. The following applies: for Emax: read-out: DOR Agonist %Emax ± SEM. For orientation: Cyclic AMP is a second messenger, typically raised through Gs and lowered through Gi signalling.
T2 sequence (P41143 whole entry): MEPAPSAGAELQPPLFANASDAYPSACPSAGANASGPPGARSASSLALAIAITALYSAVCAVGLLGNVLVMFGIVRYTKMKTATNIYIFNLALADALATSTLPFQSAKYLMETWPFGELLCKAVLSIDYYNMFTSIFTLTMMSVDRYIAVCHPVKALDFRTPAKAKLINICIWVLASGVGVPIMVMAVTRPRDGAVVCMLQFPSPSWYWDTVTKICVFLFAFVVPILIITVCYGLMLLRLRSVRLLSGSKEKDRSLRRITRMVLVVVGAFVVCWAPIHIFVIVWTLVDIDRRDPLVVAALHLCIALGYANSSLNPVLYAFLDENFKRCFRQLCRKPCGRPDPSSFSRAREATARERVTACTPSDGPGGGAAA
The nature of a further data set: Kinetic solubility assay. The following applies: kinetic from dmso stock. The format is physicochemical.
A short description of data set [7]: Multi-point microsome stability assay, rat. The format is in vitro ADME. As to conditions: male, Sprague Dawley, rat microsomal fractions, pH 7.4.
Data set [8] deals with T2, human δ-opioid receptor (OPRD1). Put plainly: Forskolin-induced cAMP accumulation assay, DOR antagonist mode. As to conditions: for DOR Antagonist %Imax ± SEM: versus EC50 of SNC80, normalized to naltrexone.
Data set [9] can be described thus: Multi-point cytosol stability assay, rat. The format is in vitro ADME. The following applies: rat cytosol fractions, pH 7.4.
Data set [10] is described as follows: Multi-point microsome stability assay, mouse. The class given is in vitro ADME. The following applies: male, CD-1, mouse, mouse microsomal fractions, pH 7.4.
Data set [11] in a line: Parallel artificial membrane permeability assay. The class given is in vitro ADME.
For data set [12], the target named is T1, human κ-opioid receptor (OPRK1). Put plainly: Forskolin-induced cAMP accumulation assay, KOR antagonist mode.

Structures are written as SMILES. ≈ marks a conversion by molar mass, not a printed value. Some results are limits rather than exact numbers.

human μ-opioid receptor (OPRM1), sequence (P35372 whole entry): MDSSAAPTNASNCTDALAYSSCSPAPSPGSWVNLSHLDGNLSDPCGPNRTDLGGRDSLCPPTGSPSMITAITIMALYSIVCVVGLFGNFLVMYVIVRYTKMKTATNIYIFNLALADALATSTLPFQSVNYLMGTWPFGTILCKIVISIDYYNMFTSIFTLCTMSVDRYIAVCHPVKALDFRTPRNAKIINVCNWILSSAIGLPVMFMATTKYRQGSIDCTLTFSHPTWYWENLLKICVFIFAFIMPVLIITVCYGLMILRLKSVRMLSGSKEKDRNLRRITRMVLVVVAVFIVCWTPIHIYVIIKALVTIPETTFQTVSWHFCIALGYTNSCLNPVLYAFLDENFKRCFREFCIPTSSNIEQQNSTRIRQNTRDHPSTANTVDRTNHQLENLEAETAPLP
T1 sequence (P41145 whole entry): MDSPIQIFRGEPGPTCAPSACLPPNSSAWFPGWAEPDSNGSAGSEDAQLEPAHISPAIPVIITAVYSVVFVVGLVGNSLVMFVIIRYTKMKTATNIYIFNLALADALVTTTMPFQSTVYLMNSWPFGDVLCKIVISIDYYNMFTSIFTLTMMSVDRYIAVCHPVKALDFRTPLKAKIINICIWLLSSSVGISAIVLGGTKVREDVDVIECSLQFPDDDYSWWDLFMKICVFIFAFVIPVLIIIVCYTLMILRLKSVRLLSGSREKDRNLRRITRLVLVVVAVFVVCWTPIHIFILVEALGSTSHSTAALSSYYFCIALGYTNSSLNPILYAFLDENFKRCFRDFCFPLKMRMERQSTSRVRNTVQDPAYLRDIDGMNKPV

As to `C=C[C@H]1C2CCCC1(c1cccc(O)c1)CCN2CCc1ccccc1[N+](=O)[O-]` (stereo in doubt) [compound 24, 3-((1S,SR,9R)-2-(2-Nitrophenethyl)-9-vinyl-2-azabicyclo[3.3.1]nonan-5-yl)phenol], the EC50 in data set [1] was 2.55 nM; in data set [3] it was > 10000 nM; in data set [6], 954 ± 502 nM. The Emax is 92.6% in [1], 0% in data set [3] and 35.9% in data set [6]. Also, the half-life at 1 μM in data set [2] is 5.02 min; in data set [4] it was 112 min; in data set [5], 102 min; in [7], 0.41 min; in data set [9], > 120 min; in data set [10], 1.22 min. Further, in “Kinetic solubility assay”, the kinetic solubility is > 39 µg/mL. In data set [8], this molecule showed an IC50 of 114 ± 11.7 nM. Further, the “DOR Antagonist %Imax ± SEM” value in data set [8] is recorded as 63.5 ± 12.0%.
As to `C=C[C@H]1C2CCCC1(c1cccc(O)c1)CCN2CCc1cccc(O)c1` (stereo in doubt) [compound 25, 3-((1S,5R,9R)-2-(3-Hydroxyphenethyl)-9-vinyl-2-azabicyclo[3.3.1]nonan-5-yl)phenol], the half-maximal effective concentration (EC50) in data set [1] is 0.93 nM; in data set [3], > 10000 nM; in [6], > 10000 nM. Besides, the Emax in [1] was 89.7%; in [6], 0%. The half-life at 1 μM in data set [2] was 27 min; in [4] it was > 120 min; in [5] it was > 120 min; in [7] it was 9.65 min; in [9], > 120 min; in [10] it was 4.02 min. Besides, it took 107 ± 12.4 nM to reach half-maximal inhibition in [8] (IC50). Further, the “DOR Antagonist %Imax ± SEM” value in [8] is on record as 138.7 ± 19.3%.
For `C=C[C@H]1[C@H]2CCC[C@]1(c1cccc(NC(C)=O)c1)CCN2CCc1ccccc1` [compound 3, N-(3-((1R,5S,9R)-2-Phenethyl-9-vinyl-2-azabicyclo[3.3.1]nonan-5-yl)phenyl)acetamide], the EC50 in data set [1] stood at 2.73 nM; in data set [3], 357 ± 109 nM; in data set [6], 303 ± 40.7 nM. Further, the Emax in data set [1] was 101%; in data set [3] it was 45.5%; in data set [6], 56.6%. In addition, the half-life at 1 μM came out at 21.3 min in [2]; 78 min in [4]; 22.9 min in [5]; 3 min in data set [7]; 88.1 min in data set [9]; 6.4 min in data set [10]. The kinetic solubility in the data set “Kinetic solubility assay” turned out to be 38 µg/mL (≈ 97.8 µM). For the same molecule, the Papp in [11] (PAMPA) came out at 731 ×10⁻⁶ cm/s.
Regarding `C=C[C@@H]1[C@H]2CCC[C@]1(c1cccc(O)c1)CCN2C` [compound 10, 3-((1R,5S,9S)-2-Methyl-9-vinyl-2-azabicyclo[3.3.1]nonan-5-yl)phenol], the EC50 in data set [1], in [3] and in [6] was > 10000 nM each time. Further, the half-life at 1 μM in [2] was > 120 min; in [4], > 120 min; in data set [5] it was > 120 min; in data set [7], 50.8 min; in data set [9] it was 116 min; in data set [10], 72.1 min. The IC50 in data set [12] and in [8] was > 10000 nM in each case. The kinetic solubility in the data set “Kinetic solubility assay” was > 25 µg/mL.
Take `C=C[C@H]1[C@H]2CCC[C@]1(c1cccc(O)c1)CCN2C` [compound 11, 3-((1R,5S,9R)-2-Methyl-9-vinyl-2-azabicyclo[3.3.1]nonan-5-yl)phenol]: the concentration for a half-maximal effect (EC50) in data set [1], in data set [3] and in data set [6] was > 10000 nM in each case. For the same molecule, the half-life at 1 μM in data set [2] is 68.9 min; in data set [4], 97.9 min; in data set [5] it was 112 min; in data set [7] it was 62.6 min; in data set [9] it was > 120 min; in [10], 21.8 min. Also, the IC50 in [12] and in data set [8] was > 10000 nM in each case. Also, the solubility (kinetic) in “Kinetic solubility assay” is > 25 µg/mL.
Regarding `C=C[C@H]1[C@H]2CCC[C@]1(c1cccc(O)c1)CCN2CC1CC1` [compound 15, 3-((1R,5S,9R)-2-(Cyclopropylmethyl)-9-vinyl-2-azabicyclo[3.3.1]nonan-5-yl)phenol], the EC50 in data set [1], in [3] and in data set [6] was > 10000 nM in each case. For the same molecule, the half-life at 1 μM in data set [2] was 8.7 min; in [4] it was > 120 min; in data set [5], > 120 min; in data set [7] it was 9.7 min; in data set [9] it was 108 min; in data set [10], 2.7 min. The solubility (kinetic) in “Kinetic solubility assay” is > 29 µg/mL. Moreover, in [11] (stirring double-sink PAMPA), the “PAMPA permeability Papp” value is reported as >1000 10E-6 cm/s. In data set [8], the IC50 is > 10000 nM.
With `C=C[C@H]1[C@H]2CCC[C@]1(c1cccc(O)c1)CCN2CCc1cccs1` [compound 16, 3-((1R,5S,9R)-2-(2-(Thiophen-2-yl)ethyl)-9-vinyl-2-azabicyclo[3.3.1]nonan-5-yl)phenol], the EC50 in data set [1] turned out to be 0.8 nM; in data set [6] it was 13.2 ± 6.8 nM. Besides, the Emax was 101% in data set [1] and 20% in [6]. The half-life at 1 μM in [2] is 8.21 min; in data set [4], > 120 min; in data set [5] it was > 120 min; in data set [7], 1.04 min; in data set [9], > 120 min; in [10], 1.66 min. Besides, the kinetic solubility in “Kinetic solubility assay” is > 35 µg/mL. Also, half-maximal inhibition in data set [8] (IC50) required 59.8 ± 13 nM. Further, the “DOR Antagonist %Imax ± SEM” value in data set [8] stood at 87.1 ± 13.9%.
For `C=C[C@H]1[C@H]2CCC[C@]1(c1cccc(O)c1)CCN2CCc1ccc(F)cc1` [compound 19, 3-((1R,5S,9R)-2-(4-Fluorophenethyl)-9-vinyl-2-azabicyclo[3.3.1]nonan-5-yl)phenol], the EC50 is 3.33 nM in [1], > 10000 nM in [3] and > 10000 nM in data set [6]. In addition, the maximal effect (Emax) in [1] was 74.3%. The half-life at 1 μM is 11.8 min in data set [2]; > 120 min in [4]; 108 min in [5]; 7.6 min in data set [7]; 79.4 min in data set [9]; 5.26 min in data set [10]. Also, the solubility (kinetic) in the data set “Kinetic solubility assay” is > 36 µg/mL. In addition, the IC50 in [8] was found to be 120 ± 18.5 nM. The “DOR Antagonist %Imax ± SEM” value in data set [8] stood at 153.1 ± 15.3%.
With `C=C[C@H]1[C@H]2CCC[C@]1(c1cccc(O)c1)CCN2CCc1ccc(O)cc1` [compound 20, 3-((1R,5S,9R)-2-(4-Hydroxyphenethyl)-9-vinyl-2-azabicyclo[3.3.1]nonan-5-yl)phenol], the values for the EC50 in data set [1], in [3] and in data set [6] were 4.16 nM, > 10000 nM and > 10000 nM, respectively. For the same molecule, the Emax in data set [1] was 54.8%. Besides, the half-life at 1 μM in data set [2] was 88.1 min; in data set [4], > 120 min; in data set [5] it was > 120 min; in data set [7] it was 27.8 min; in data set [9] it was > 120 min; in [10] it was 12.5 min. Besides, in “Kinetic solubility assay”, the kinetic solubility is > 34 µg/mL. Further, the IC50 in data set [8] was 303 ± 29.2 nM. Further, the “DOR Antagonist %Imax ± SEM” value in data set [8] is 163.6 ± 19.5%.

Broadly, the EC50 is the concentration that produces a half-maximal response. By Emax is commonly meant the greatest response seen or fitted, relative to the assay's reference. A word on the half-life: it is how long it takes for the measured level to halve. The solubility (kinetic) is solubility judged after dilution from a stock solution rather than from solid. The term IC50 denotes the concentration that gives 50% inhibition. Read a low IC50 as greater potency. What is called Papp is a coefficient for how fast a substance crosses the barrier.

For the origin of these results see publication PMC12136991 (ACS chemical neuroscience, 2025).
